According to patent USRE32333E, “A-21978 Antibiotics and process for their production” (priority 1985, dated 1987):
In brackets after ≈: the same amount, converted by molar mass. Several values for one entry are separate records, joined by “and”; a condition that tells them apart may be missing. Identical values can stand only once. Like-named read-outs stand apart in the source and are kept apart here.

What was measured:
[1] = system: A21978.6 (Streptomyces roseosporus NRRL 11379); assay: Antibiotic sensitivity of producing culture (sensitivity discs); type: cell-based; set-up: key: + = sensitive (zones of inhibition); - = resistant (no zones of inhibition); settings: discs on seeded ISP #2 agar; erythromycin 15 μg, cephalothin 30 μg, lincomycin 2 μg, nystatin 100 units, polymyxin B 300 units, streptomycin 10 μg, tetracycline 30 μg, vancomycin 30 μg
Protocol: (§1) Temperature range, NaCl tolerance, pH range, and antibiotic sensitivity were done using ISP #2 agar medium. The range of temperatures were: 25°, 28°, 30°, 34°, 37°, 40°, 45°, 50° and 55° C. NaCl tolerance was measured by adding NaCl to the agar to equal: 0, 1, 2, 3, 4, 5, 6, 8, 10 and 12%. These were incubated at 30° C. The pH range was measured by adjusting the agar from pH 3.0 to 11.0 at increments of 1.0 pH units, just prior to pouring. Antibiotic sensitivity was determined using sensitivity discs padded onto seeded agar plates.

[2] = system: S. roseosporus (ISP 5122; ATCC 23958); assay: Antibiotic sensitivity of comparison culture (sensitivity discs); type: cell-based, Streptomyces roseosporus; set-up: key: + = sensitive (zones of inhibition); - = resistant (no zones of inhibition); settings: discs on seeded ISP #2 agar; erythromycin 15 μg, cephalothin 30 μg, lincomycin 2 μg, nystatin 100 units, polymyxin B 300 units, streptomycin 10 μg, tetracycline 30 μg, vancomycin 30 μg
Protocol: as §1, with “plates. Streptomyces roseosporus ISP 5122; ATCC 23958” for “plates.”

[3] = Rat, IV
[4] = system: Peptococcus asaccharolyticus; assay: MIC against anaerobic bacteria, standard agar-dilution (Table XIV); type: cell-based; settings: anaerobe
[5] = system: Streptococcus pyogenes C203; assay: MIC, standard agar-dilution test (Table XI); type: cell-based; settings: aerobic, S. pyogenes C203, sodium salt form
[6] = system: Peptostreptococcus intermedius; assay: MIC against anaerobic bacteria, standard agar-dilution (Table XIV); type: cell-based; settings: anaerobe
[7] = system: Staphylococcus aureus; assay: MIC against clinical isolates, ICS agar-dilution (Table XIII); type: cell-based; settings: 10 clinical isolates, bracket = number of isolates with this MIC or range
[8] = system: Streptococcus faecalis (Guze); assay: Streptococcus faecalis descending rat pyelonephritis test; settings: for Percent of Rats Cured: cure = kidney counts less than 10^2 per g; for Percent of Rats with a 4-Log Titer Decrease: once daily, kidney titer vs infected controls
[9] = system: Group D Streptococcus 282; assay: MIC, standard broth-dilution test (Table XII); type: cell-based; settings: aerobic
[10] = Electrometric titration in 66% aqueous dimethylformamide; type: physicochemical; settings: 66% DMF, Na salt forms; factors: two determinations
[11] = system: Group D Streptococcus 282; assay: MIC, standard agar-dilution test (Table XI); type: cell-based; settings: aerobic, sodium salt form
[12] = system: Fusobacterium symbiosum; assay: MIC against anaerobic bacteria, standard agar-dilution (Table XIV); type: cell-based; settings: anaerobe
[13] = system: Clostridium perfringens; settings: anaerobe, agar-dilution
[14] = system: Viridans Streptococcus 9943; assay: MIC, standard agar-dilution test (Table XI); type: cell-based; settings: aerobic, sodium salt form
[15] = system: Clostridium septicum; assay: MIC against anaerobic bacteria, standard agar-dilution (Table XIV); type: cell-based; settings: anaerobe
[16] = system: Bacteroides fragilis; assay: as above; type: cell-based; settings: anaerobe
[17] = system: Streptococcus pneumoniae Park I; assay: MIC, standard agar-dilution test (Table XI); type: cell-based; settings: aerobic, S. pneumoniae Park I, sodium salt form
[18] = system: Streptococcus pyogenes; assay: MIC, agar dilution (Table XV); type: cell-based
Description: (§2) ^1 MIC = minimum inhibitory concentration (μg/ml), agar dilution

[19] = system: Streptococcus pneumoniae; assay: MIC, agar dilution (Table XV); type: cell-based
Description: as §2

[20] = system: Staphylococcus aureus; assay: MIC, agar dilution (Table XV); type: cell-based
Description: as §2

[21] = system: Peptococcus prevoti; assay: MIC against anaerobic bacteria, standard agar-dilution (Table XIV); type: cell-based; settings: anaerobe
[22] = system: Fusobacterium necrophorum; assay: as above; type: cell-based; settings: anaerobe
[23] = system: Streptococcus faecalis (Guze); assay: In vitro susceptibility (MIC) of the S. faecalis Guze strain; type: cell-based
Description: ^1 In vitro susceptibility of the S. faecalis Guze strain

[24] = system: Staphylococcus aureus 3055; assay: MIC, standard agar-dilution test (Table XI); type: cell-based; settings: aerobic, S. aureus 3055, sodium salt form
[25] = system: Peptostreptococcus anaerobius; assay: MIC against anaerobic bacteria, standard agar-dilution (Table XIV); type: cell-based; settings: anaerobe
[26] = system: Staphylococcus aureus 3055; assay: MIC, standard broth-dilution test (Table XII); type: cell-based; settings: aerobic, S. aureus 3055
[27] = Mouse
[28] = system: Propionibacterium acnes; assay: MIC against anaerobic bacteria, standard agar-dilution (Table XIV); type: cell-based; settings: anaerobe
[29] = system: Eubacterium aerofaciens; assay: as above; type: cell-based; settings: anaerobe
[30] = system: Micrococcus luteus; assay: Paper-disc agar-diffusion bioassay; settings: individual factors, Na salts
[31] = system: Streptococcus pyogenes C203; assay: MIC, standard broth-dilution test (Table XII); type: cell-based; settings: aerobic, S. pyogenes C203
[32] = system: Viridans Streptococcus 9943; assay: MIC, standard broth-dilution test (Table XII); type: cell-based; settings: aerobic
[33] = system: Actinomyces israelii; assay: MIC against anaerobic bacteria, standard agar-dilution (Table XIV); type: cell-based; settings: anaerobe
[34] = system: Neisseria gonorrhoeae 111076-4; assay: MIC, standard agar-dilution test (Table XI); type: cell-based; settings: aerobic, N. gonorrhoeae 111076-4, sodium salt form
[35] = system: Streptococcus pyogenes; assay: Experimental bacterial infection in mice, ED50; type: in vivo; settings: S. pyogenes infection, two doses
Protocol: (§3) When two doses of test compound were administered to mice in illustrative infections, the activity observed as measured as an ED50 value [effective dose in mg/kg to protect fifty percent of the test animals: See Warren Wick, et al., J. Bacteriol, 81, 233-235 (1961)].

[36] = system: Streptococcus pneumoniae; assay: Experimental bacterial infection in mice, ED50; type: in vivo; settings: S. pneumoniae infection, two doses, subcutaneous administration
Protocol: as §3

[37] = system: Staphylococcus aureus; assay: Experimental bacterial infection in mice, ED50; type: in vivo; settings: S. aureus infection, two doses, subcutaneous administration
Protocol: as §3

[38] = system: Streptococcus pneumoniae Park I; assay: MIC, standard broth-dilution test (Table XII); type: cell-based; settings: aerobic, S. pneumoniae Park I

**Q.** For CN(C)[C@@H]1C(O)=C(C(N)=O)C(=O)[C@@]2(O)C(O)=C3C(=O)c4c(O)cccc4[C@@](C)(O)[C@H]3C[C@@H]12 [Tetracycline], which “Antibiotic Sensitivity, A21978.6” value [1] is on record?
**A.** +

**Q.** What about the “Antibiotic Sensitivity, S. roseosporus” value [2] of the same molecule?
**A.** +

**Q.** What does the source list for CC(C)CCCCCCCCC(=O)NC(Cc1c[nH]c2ccccc12)C(=O)NC(CC(N)=O)C(=O)NC(CC(=O)O)C(=O)NC1C(=O)NCC(=O)NC(CCCN)C(=O)NC(CC(=O)O)C(=O)NC(C)C(=O)NC(CC(=O)O)C(=O)NCC(=O)NC(CO)C(=O)NC(C(C)CC(=O)O)C(=O)NC(CC(=O)c2ccccc2N)C(=O)OC1C (stereo not shown) [Factor C2]?
**A.** LD50 [3]: 204 ± 17 mg/kg; MIC [4]: 2 µg/mL (≈ 1.21 µM); MIC [5]: 0.13 µg/mL; MIC [6]: 1.0 µg/mL (≈ 0.607 µM); Minimum Inhibitory Concentration [7]: 0.12 to 0.25 µg/mL; Percent of Rats Cured ([8]; 1.0 mg/kg x 7 subcutaneous): 89; Percent of Rats with a 4-Log Titer Decrease ([8]; 1.0 mg/kg x 7 subcutaneous): 100; MIC [9]: 1.0 µg/mL (≈ 0.607 µM); pKa Values (first group) [10]: 5.8 and 5.93; pKa Values (second group) [10]: 7.6 and 7.63; MIC [11]: 0.25 µg/mL; MIC [12]: > 128 µg/mL; MIC [13]: 8 µg/mL (≈ 4.85 µM); MIC [14]: 1.0 µg/mL; MIC [15]: 1.0 µg/mL (≈ 0.607 µM); MIC [16]: > 128 µg/mL; MIC [17]: 0.25 µg/mL; MIC [18]: 0.13 µg/mL (≈ 0.0788 µM); MIC [19]: 0.13 µg/mL (≈ 0.0788 µM); MIC [20]: 0.13 µg/mL (≈ 0.0788 µM); MIC [21]: 1.0 µg/mL (≈ 0.607 µM); MIC [22]: 64 µg/mL (≈ 38.8 µM); MIC [23]: 0.25 µg/mL (≈ 0.152 µM); MIC [24]: 0.13 µg/mL; MIC [25]: 1.0 µg/mL (≈ 0.607 µM); MIC [26]: 0.5 µg/mL (≈ 0.303 µM); LD50 ([27]; IV): 150 to 250 mg/kg; LD50 ([27]; SC): 175 mg/kg; MIC [28]: 2 µg/mL (≈ 1.21 µM); MIC [29]: 8 µg/mL (≈ 4.85 µM); Bioassay (Micrococcus luteus) [30]: 1390 units/mg; MIC [31]: 0.25 µg/mL (≈ 0.152 µM); MIC [32]: 16.0 µg/mL (≈ 9.7 µM); MIC [33]: 1.0 µg/mL (≈ 0.607 µM); MIC [34]: 4.0 µg/mL; ED50 ([35]; oral administration): 59 mg/kg; ED50 ([35]; subcutaneous administration): 0.032 mg/kg; ED50 [36]: 0.14 mg/kg; ED50 [37]: 0.16 mg/kg; MIC [38]: 1.0 µg/mL (≈ 0.607 µM)

**Q.** Which results are given for CCC[C@@H]1C[C@@H](C(=O)N[C@@H]([C@H]2O[C@H](SC)[C@H](O)[C@@H](O)[C@H]2O)[C@@H](C)O)N(C)C1 [Lincomycin]?
**A.** Antibiotic Sensitivity, A21978.6 [1]: -; Antibiotic Sensitivity, S. roseosporus [2]: -

**Q.** Which “Antibiotic Sensitivity, A21978.6” value [1] does the source give for [H]/N=C(/N)N[C@H]1[C@H](O)[C@@H](O)[C@H](O[C@@H]2O[C@@H](C)[C@](O)(C=O)[C@H]2O[C@@H]2O[C@@H](CO)[C@H](O)[C@@H](O)[C@@H]2NC)[C@@H](N/C(N)=N\[H])[C@@H]1O [Streptomycin] here?
**A.** +

**Q.** And the “Antibiotic Sensitivity, S. roseosporus” value [2]?
**A.** +

**Q.** For CN[C@H](CC(C)C)C(=O)N[C@H]1C(=O)N[C@@H](CC(N)=O)C(=O)N[C@H]2C(=O)N[C@H]3C(=O)N[C@H](C(=O)N[C@H](C(=O)O)c4cc(O)cc(O)c4-c4cc3ccc4O)[C@H](O)c3ccc(c(Cl)c3)Oc3cc2cc(c3O[C@@H]2O[C@H](CO)[C@@H](O)[C@H](O)[C@H]2O[C@H]2C[C@](C)(N)[C@H](O)[C@H](C)O2)Oc2ccc(cc2Cl)[C@H]1O [Vancomycin, reference compound], which “Percent of Rats Cured” value ([8]; 12.0 mg/kg x 7 subcutaneous) is on record?
**A.** 33

**Q.** And the “Percent of Rats with a 4-Log Titer Decrease” value ([8]; 12.0 mg/kg x 7 subcutaneous)?
**A.** 55

**Q.** And the “Antibiotic Sensitivity, A21978.6” value [1]?
**A.** +

**Q.** What about the “Antibiotic Sensitivity, S. roseosporus” value [2] of the same molecule?
**A.** +

**Q.** With Polymyxin B as the molecule, how does the “Antibiotic Sensitivity, A21978.6” value [1] read?
**A.** +

**Q.** And the “Antibiotic Sensitivity, S. roseosporus” value [2]?
**A.** -

**Q.** Which “Antibiotic Sensitivity, A21978.6” value [1] does the source give for C[C@@H]1[C@H](O)[C@@H](C)/C=C/C=C/CC/C=C/C=C/C=C/C=C/C(O[C@H]2O[C@H](C)[C@@H](O)[C@H](N)[C@@H]2O)CC2O[C@](O)(CC(O)C(O)CCC(O)CC(O)CC(O)CC(=O)O[C@H]1C)CC(O)C2C(=O)O (stereo partly shown) [Nystatin] here?
**A.** -

**Q.** And the “Antibiotic Sensitivity, S. roseosporus” value [2]?
**A.** -

**Q.** What does the source list for CC(=O)OCC1=C(C(=O)O)N2C(=O)[C@@H](NC(=O)Cc3cccs3)[C@H]2SC1 [Cephalothin]?
**A.** Antibiotic Sensitivity, A21978.6 [1]: +; Antibiotic Sensitivity, S. roseosporus [2]: +

**Q.** Which results are given for CC[C@H]1OC(=O)[C@H](C)[C@@H](O[C@H]2C[C@@](C)(OC)[C@@H](O)[C@H](C)O2)[C@H](C)[C@@H](O[C@@H]2O[C@H](C)C[C@H](N(C)C)[C@H]2O)[C@](C)(O)C[C@@H](C)C(=O)[C@H](C)[C@@H](O)[C@]1(C)O [Erythromycin, reference compound]?
**A.** MIC ([18]; read-out: MIC): 0.13 µg/mL (≈ 0.177 µM); MIC ([19]; read-out: MIC): 0.5 µg/mL (≈ 0.681 µM); MIC ([20]; read-out: MIC): 0.13 µg/mL (≈ 0.177 µM); Antibiotic Sensitivity, A21978.6 [1]: +; Antibiotic Sensitivity, S. roseosporus [2]: +; ED50 ([35]; Streptococcus pyogenes, sc, subcutaneous administration, read-out: ED50): 0.64 mg/kg; ED50 ([36]; Streptococcus pneumoniae, sc, read-out: ED50): 7.3 mg/kg; ED50 ([37]; Staphylococcus aureus, sc, read-out: ED50): 0.5 mg/kg
